{
  "source": "patent US20220280507A1",
  "about": "“USES OF 5-METHYLTETRAHYDROFOLATE AND ITS COMPOSITION” (Lianyungang Jinkang Hexin Pharmaceutical Co., Ltd., priority 2019, published 2022)",
  "key": {"TNF-α": {"tested_on": "TNF-α", "assay": "Alcoholic fatty liver model, TNF-α in hippocampus tissue (ELISA)", "type": "in vivo, SD rats", "conditions": "liquor model, n=16", "protocol": "According to their weight, they were randomly divided into vehicle control group (purified water, ig), model control group (liquor, 10 ml·Kg−1), positive control group (bicyclol, 50 mg·Kg−1, ig), folic acid calcium salt high-dose group (4 mg·Kg−1), folic acid calcium salt medium-dose group (2 mg·Kg−1), folic acid calcium salt low-dose group (1 mg·Kg−1), in half female and half male, and 16 rats in each group. Purified water was used as a negative control, and bicyclol (place of origin: Beijing Xiehe Pharmaceutical Factory, specification: 25 mg/tablet, batch number: H20040467) was used as a positive control drug. Route of administration: all were administered by oral gavage. Dosage of administration: 1 mg·Kg−1, 2 mg·Kg−1, and 4 mg·Kg−1. Frequency of administration: once a day for 60 consecutive days.\nMethod of administration: administration started at prescribed doses on the day of modeling for 60 consecutive days and ended at the 60th day. At the same time, rats in each group were weighed every other week during administration period to monitor their body weight changes. On the 61st day, rats were dissected and serum was collected for determination of triglyceride (TG), total cholesterol (TC), malondialdehyde (MDA), superoxide dismutase (SOD) and liver histopathologic examination. The brain tissue of rats was taken out, and hippocampus tissue was separated on ice plate, prepared to homogenate with a mass fraction of 10% with purified water, then the homogenate was centrifuged to obtain supernatant. ELISA was used to detect the levels of inflammatory factors TNF-α and IL-1β in hippocampus tissue with continuous spectrum scanning microplate reader."}, "hyperlipemia rats": {"tested_on": "hyperlipemia rats", "assay": "Hyperlipemia rats (high-fat diet), biochemical indexes TG, TC, SOD, MDA", "type": "in vivo, SD rats", "protocol": "Experiment 5 Effect of 5-Methyltetrahydrofolate Calcium on Hyperlipemia Rats\n7 weeks later, one rat in the control group and one rat in the model group were sacrificed for liver tissue section to check fatty degeneration of hepatocytes (see Table 7) to confirm whether modeling was successful. The remaining 40 modeling rats were randomly divided into low-dose (1 mg·Kg−1) group, medium-dose (2 mg·Kg−1) group, high-dose (4 mg·Kg−1) group, positive drug group, and model group.\nBicyclol (place of origin: Beijing Xiehe Pharmaceutical Factory, specification: 25 mg/tablet, batch number: H20040467) was used as a positive drug.\nAfter successful modeling, rats were administered drugs with dosages as prescribed for 60 consecutive days, continued to be fed with high-fat diet, and dissected on the 61st day. Liver was harvested and weighed, liver index was calculated, right lobe tissue was taken to prepare frozen sections, and fat staining was performed with Sudan III for pathological scoring according to guidelines for diagnosis and treatment of NAFLD. Another liver tissue was taken to prepare homogenate, and total cholesterol (TC), triglyceride (TG), malondialdehyde (MDA), and superoxide dismutase (SOD) in serum were detected."}, "mice after drinking": {"tested_on": "mice after drinking", "conditions": "n=10", "protocol": "Experiment 8 Tail Suspension Test and Swimming Test in Mice after Drinking\nClean-grade male Kunming mice, weighing 18-22 g, were chosen. The test was carried out at 23° C. with a humidity of 50%. The mice ate and drank freely, adapting to the environment for 5 days before the test. Then they were divided into 5 groups: model group, normal group, high-dose 5-MTHF-Ca group, medium-dose 5-MTHF-Ca group and low-dose 5-MTHF-Ca group (16 mg·Kg−1, 8mg·Kg−1, 4mg·Kg−1),\n10 mice in each group. The model group was given (by gavage) Erguotou (batch number: 201603092, specification: 2L, place of origin: Beijing Shunxin Agriculture Co., Ltd.) at 18 ml·Kg−1, and calcium folate (Lianyungang Jinkang Hexin Pharmaceutical Co., Ltd.). The high-dose, medium-dose and low-dose groups were also given the solution containing Erguotou and calcium folate. The mice were tested after 24 h. The tail suspension test is carried out by fixing the tail of a mouse so that it is suspended head down in a state of desperately struggling to escape but unable to escape. After a period of time, record the immobility time of the mouse in a desperate state in this environment to observe the therapeutic effect after administration. The head of the mouse suspended upside down was 10 cm from the bottom of the box, and two mice were suspended at a time, which were separated by a partition to avoid collision. The mice were suspended for 10 min, and the accumulated immobility time of the suspended mice was counted within the latter 5 min."}, "homocysteine (Hcy)": {"tested_on": "homocysteine (Hcy)", "assay": "Homocysteine (Hcy) in plasma of alcohol drinking rats", "type": "in vivo, SD rats", "conditions": "plasma 6 h after Erguotou 20 ml·Kg−1", "protocol": "Experiment 2 Effect of 5-methyltetrahydrofolate on homocysteine (Hcy) in plasma of alcohol drinking rats.\n30 SPF-grade SD rats were chosen in half male and half female, and divided into 5 groups with 6 rats in each group, including normal group, model group, positive drug group (Weihe Liver Protectant), 5-methyltetrahydrofolate administration groups (4 mg·Kg−1 medium dose group, 8 mg·Kg−1 high dose group, respectively). After fasting for 12 h, the administration groups were given Weihe Liver Protectant at 50 mg·kg−1, 5-methyltetrahydrofolate (Jinkang Hexin product) at 4 mg·Kg−1, 5-methyltetrahydrofolate (Jinkang Hexin product) at 8 mg·Kg−1, respectively. […] 6 h after drinking, blood was collected from the eye socket, treated with 0.5% EDTA-Na for anticoagulation (10 ml/L), immediately cooled in an ice bath, and centrifuged at 4° C. (3500r/min) for 15 min within 30 min. Plasma was collected and stored at −20° C. The plasma Hcy concentration was determined with high pressure liquid chromatography-fluorescence detection method."}},
  "note": "Like-named read-outs stand apart in the source and are kept apart here.",
  "data": [
    {"compound": "5-methyltetrahydrofolate calcium", "values": [
      {"measurement": "TNF-α in hippocampus tissue", "setting": "TNF-α; 1 mg·kg−1·d−1 ig 60 d", "value": "250.39 ± 32.40", "unit": "μg · g^−1 prot"},
      {"measurement": "TNF-α in hippocampus tissue", "setting": "TNF-α; 2 mg·kg−1·d−1 ig 60 d", "value": "241.32 ± 29.32", "unit": "μg · g^−1 prot"},
      {"measurement": "TNF-α in hippocampus tissue", "setting": "TNF-α; 4 mg·kg−1·d−1 ig 60 d", "value": "220.43 ± 24.34", "unit": "μg · g^−1 prot"},
      {"measurement": "MDA", "setting": "hyperlipemia rats; 1 mg·kg−1·d−1, 60 d", "value": "45.20 ± 8.17", "unit": "nmol/mgprot"},
      {"measurement": "SOD", "setting": "hyperlipemia rats; 1 mg·kg−1·d−1, 60 d", "value": "234.20 ± 21.36", "unit": "U/mgprot"},
      {"measurement": "TC", "setting": "hyperlipemia rats; 1 mg·kg−1·d−1, 60 d", "value": "1.45 ± 0.38", "unit": "mmol/L"},
      {"measurement": "TG", "setting": "hyperlipemia rats; 1 mg·kg−1·d−1, 60 d", "value": "1.07 ± 0.33", "unit": "mmol/L"},
      {"measurement": "MDA", "setting": "hyperlipemia rats; 2 mg·kg−1·d−1, 60 d", "value": "42.26 ± 9.35", "unit": "nmol/mgprot"},
      {"measurement": "SOD", "setting": "hyperlipemia rats; 2 mg·kg−1·d−1, 60 d", "value": "257.41 ± 30.29", "unit": "U/mgprot"},
      {"measurement": "TC", "setting": "hyperlipemia rats; 2 mg·kg−1·d−1, 60 d", "value": "1.57 ± 0.36", "unit": "mmol/L"},
      {"measurement": "TG", "setting": "hyperlipemia rats; 2 mg·kg−1·d−1, 60 d", "value": "1.03 ± 0.55", "unit": "mmol/L"},
      {"measurement": "MDA", "setting": "hyperlipemia rats; 4 mg·kg−1·d−1, 60 d", "value": "40.98 ± 11.37", "unit": "nmol/mgprot"},
      {"measurement": "SOD", "setting": "hyperlipemia rats; 4 mg·kg−1·d−1, 60 d", "value": "260.97 ± 30.04", "unit": "U/mgprot"},
      {"measurement": "TC", "setting": "hyperlipemia rats; 4 mg·kg−1·d−1, 60 d", "value": "1.50 ± 0.34", "unit": "mmol/L"},
      {"measurement": "TG", "setting": "hyperlipemia rats; 4 mg·kg−1·d−1, 60 d", "value": "1.05 ± 0.63", "unit": "mmol/L"},
      {"measurement": "Suspension immobility time", "setting": "mice after drinking; high dose 16 mg·Kg−1 with Erguotou 18 ml·Kg−1, tested after 24 h", "value": "63.53 ± 2.98", "unit": "S"},
      {"measurement": "Suspension immobility time", "setting": "mice after drinking; low dose 4 mg·Kg−1 with Erguotou 18 ml·Kg−1, tested after 24 h", "value": "72.42 ± 4.52", "unit": "S"},
      {"measurement": "Suspension immobility time", "setting": "mice after drinking; medium dose 8 mg·Kg−1 with Erguotou 18 ml·Kg−1, tested after 24 h", "value": "68.32 ± 3.46", "unit": "S"}
    ]},
    {"compound": "CN1c2c([nH]c(N)nc2=O)NCC1CNc1ccc(C(=O)N[C@@H](CCC(=O)O)C(=O)O)cc1", "note": "(stereo partly drawn) [5-methyltetrahydrofolate, N-[4-[[(2-amino-1,4,5,6,7,8-hexahydro-4-oxo-5-methyl-(6S), -(6R), and (6R,S)-pteridyl)methyl)amino)toluoyl-glutamic acid]", "values": [
      {"measurement": "Hcy", "setting": "homocysteine (Hcy); 4 mg·Kg−1, n=6", "value": "3.13 ± 1.26", "unit": "µmol/L"},
      {"measurement": "Hcy", "setting": "homocysteine (Hcy); 8 mg·Kg−1, n=6", "value": "2.32 ± 1.49", "unit": "µmol/L"}
    ]}
  ]
}
